Series [1] concerns the target T1, CYP2C19 (Homo sapiens, UniProt P33261). Kind of series: Time-dependent CYP inhibition (Method 1), human hepatic microsome. The settings on record: 30 min pre-incubation at 37° C., S-mephenytoin, n = 2. In kind it is in vitro ADME.
Method: (§2) The test substance was added to an enzyme solution (containing human hepatic microsome (0.2 mg/mL), 100 mM Kpi and 0.1 mM EDTA), and pre-incubated for 30 minutes at 37° C. in the presence of or absence of the coenzyme. The final concentration of the test substance was set at 0.1, 0.2, 0.4, 0.5, 1, 2, 10 or 50 μM. A NADPH generating system (60 mM MgCl2 solution containing 3.6 mM β-NADP^+, 90 mM glucose-6 phosphate and 1 Unit/mL glucose-6-phosphate dehydrogenase, incubated for 5 minutes to generate NADPH) was used as the coenzyme. After pre-incubation, part of the reaction solution was collected, diluted 10 times by mixing with a model substrate solution and the NADPH generating system, and then incubated for 10 minutes at 37° C. An equal amount of a mixed solution of acetonitrile and methanol (1:1, containing 0.05 μM dextrophan or 0.05 μM propranolol as an internal standard) was added to terminate the reaction, and metabolites of the model substrate in the reaction solution were measured by LC-MS/MS. […] The ratio relative to the amount of model substrate metabolites in the control test was given as residual activity. The ratio of residual activity in the presence of NADPH relative to residual activity in the absence of NADPH was evaluated, and the ratio of 80% or less was defined “+”, while the ratio of above 80% was defined as “−”.
The target in the next series is T2, serotonin transporter (Rattus norvegicus, UniProt P31652).
T2 construct: evaluated using rat platelets expressing serotonin transporters; from tissue
Put plainly: Inhibitory action on serotonin transporter (fluorescent substrate uptake in rat platelets). Type of series: cell-based.

Series [2] deals with T3, CYP3A4 (Homo sapiens, UniProt P08684). Kind of series: Time-dependent CYP inhibition (Method 1), human hepatic microsome. Type of series: in vitro ADME. The settings on record: 30 min pre-incubation at 37° C., midazolam, n = 2.
T3 sequence (P08684 whole entry): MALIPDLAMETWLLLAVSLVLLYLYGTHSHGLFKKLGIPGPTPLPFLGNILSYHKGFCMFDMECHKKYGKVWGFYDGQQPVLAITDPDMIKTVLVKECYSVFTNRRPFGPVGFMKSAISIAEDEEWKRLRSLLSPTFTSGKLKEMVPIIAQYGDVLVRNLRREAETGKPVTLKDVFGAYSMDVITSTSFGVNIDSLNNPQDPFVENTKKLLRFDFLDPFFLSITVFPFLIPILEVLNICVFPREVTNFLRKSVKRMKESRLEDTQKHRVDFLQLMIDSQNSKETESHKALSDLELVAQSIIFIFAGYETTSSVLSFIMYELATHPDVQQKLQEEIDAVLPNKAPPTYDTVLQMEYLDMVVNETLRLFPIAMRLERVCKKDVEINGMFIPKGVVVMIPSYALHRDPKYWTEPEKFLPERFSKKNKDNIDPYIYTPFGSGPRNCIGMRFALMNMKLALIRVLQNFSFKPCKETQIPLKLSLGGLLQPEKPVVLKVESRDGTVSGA
Method: as §2
Another series relates to male BALB/c mice. Kind of series: In vivo efficacy test by forced swimming. The settings on record: oral, 1 hour before test; Example 1 10, 30 or 100 mg/kg, paroxetine 30 or 100 mg/kg; last 4 minutes; FIG. 1. Set-up: species or system mouse. As to the method:
After 1 hour, the mice were placed individually in glass cylinders (19 cm in height, 9 cm in diameter) holding 9 cm of water, and observed at 23° C. for 6 minutes, during which time their behavior was recorded with a video camera. The control group was given the same amount of vehicle (0.5% methyl cellulose solution, 10 mL/kg).
The immobility times during the last 4 minutes were calculated from the video recordings. The mice were considered to be immobile if the following three behavioral criteria were met: they stopped struggling, stopped climbing, and floated on the water basically immobile, with only the slight movement necessary to keep their heads above water.

Series [3] concerns the target T4, CYP1A2 (Homo sapiens, UniProt P05177).
T4 sequence (P05177 1-516): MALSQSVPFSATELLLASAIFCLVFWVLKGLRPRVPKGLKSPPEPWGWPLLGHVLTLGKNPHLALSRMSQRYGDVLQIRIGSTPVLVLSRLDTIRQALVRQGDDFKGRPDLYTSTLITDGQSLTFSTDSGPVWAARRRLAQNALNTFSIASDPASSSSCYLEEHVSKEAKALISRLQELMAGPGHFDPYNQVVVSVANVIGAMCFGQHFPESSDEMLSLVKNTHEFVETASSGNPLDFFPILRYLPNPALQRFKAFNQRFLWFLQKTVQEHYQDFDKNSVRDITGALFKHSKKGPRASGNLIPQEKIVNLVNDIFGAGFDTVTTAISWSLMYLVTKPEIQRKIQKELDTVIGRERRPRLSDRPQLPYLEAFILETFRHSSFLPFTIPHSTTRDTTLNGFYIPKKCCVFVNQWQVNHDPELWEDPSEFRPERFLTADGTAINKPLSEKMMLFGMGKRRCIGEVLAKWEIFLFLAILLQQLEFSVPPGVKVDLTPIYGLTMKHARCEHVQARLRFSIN
The settings on record: 30 min pre-incubation at 37° C., phenacetin, n = 2.
Method: as §2

The target of series [4] is T5, CYP2D6 (Homo sapiens, UniProt P10635). Kind of series: Time-dependent CYP inhibition (Method 1), human hepatic microsome. In kind it is in vitro ADME. The settings on record: 30 min pre-incubation at 37° C., bufuralol, n = 2.
T5 sequence (P10635 whole entry): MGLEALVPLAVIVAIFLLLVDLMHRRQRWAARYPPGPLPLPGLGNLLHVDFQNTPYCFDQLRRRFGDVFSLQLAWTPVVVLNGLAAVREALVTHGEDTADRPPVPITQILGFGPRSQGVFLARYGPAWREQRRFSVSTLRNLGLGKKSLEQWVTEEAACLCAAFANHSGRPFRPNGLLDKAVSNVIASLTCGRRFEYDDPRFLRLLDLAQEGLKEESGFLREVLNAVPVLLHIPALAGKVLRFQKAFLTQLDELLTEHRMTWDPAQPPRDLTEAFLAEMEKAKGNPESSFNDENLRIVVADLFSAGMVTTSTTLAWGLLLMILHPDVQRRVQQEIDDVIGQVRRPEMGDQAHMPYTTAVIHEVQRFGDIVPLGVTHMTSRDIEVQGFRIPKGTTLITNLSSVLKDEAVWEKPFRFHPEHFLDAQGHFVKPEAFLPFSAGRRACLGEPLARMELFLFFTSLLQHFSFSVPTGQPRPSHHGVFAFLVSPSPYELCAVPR
Method: as §2
Series [5] deals with T4, CYP1A2. Kind of series: Competitive CYP inhibition (Method 2), human hepatic microsome. In kind it is in vitro ADME. Also noted: containing human hepatic microsome (0.2 mg/mL); from tissue; host or cells: human hepatic microsomal fraction. Conditions: tested at 1 or 10 μM, phenacetin 10 μM, n = 2; read-out: CYP1A2 IC50 score (competitive inhibition). As to the method: (§1) The inhibition rate was determined from the amounts of model substrate metabolites with and without addition of the test substance at each test substance concentration, and the IC50 value was calculated from the inhibition rate (calculation method in accordance with Xenobiotica, 1999, 29(1), 53-75).

In series [6] the target is T1, CYP2C19. The series is described as above. Type of series: in vitro ADME. As to the method: as §1
Series [7] concerns the target T5, CYP2D6. The series is described as above. Type of series: in vitro ADME. As to the method: as §1
In series [8] the target is T3, CYP3A4. Described as above. Type of series: in vitro ADME. As to the method:
as §1

The target of series [9] is T6, CYP2C9 (Homo sapiens, UniProt P11712). The series is described as above. In kind it is in vitro ADME. As to the method: as §1
T6 sequence (P11712 whole entry): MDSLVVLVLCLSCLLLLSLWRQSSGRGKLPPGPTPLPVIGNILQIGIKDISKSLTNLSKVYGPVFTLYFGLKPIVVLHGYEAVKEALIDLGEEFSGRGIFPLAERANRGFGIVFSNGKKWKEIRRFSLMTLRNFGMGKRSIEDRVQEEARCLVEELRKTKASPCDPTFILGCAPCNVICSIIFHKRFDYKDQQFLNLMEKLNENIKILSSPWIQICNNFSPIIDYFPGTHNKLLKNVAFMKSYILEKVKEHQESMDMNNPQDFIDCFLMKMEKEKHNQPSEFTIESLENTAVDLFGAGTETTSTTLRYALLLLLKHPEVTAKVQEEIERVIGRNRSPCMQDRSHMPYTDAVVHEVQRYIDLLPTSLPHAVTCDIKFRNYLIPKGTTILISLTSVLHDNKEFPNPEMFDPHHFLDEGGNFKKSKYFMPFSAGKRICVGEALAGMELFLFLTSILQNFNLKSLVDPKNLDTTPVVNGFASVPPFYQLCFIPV
The target of series [10] is T6, CYP2C9. Kind of series: Time-dependent CYP inhibition (Method 1), human hepatic microsome. In kind it is in vitro ADME. Conditions: 30 min pre-incubation at 37° C., tolbutamide, n = 2.
Method: as §2

This note sets out measurements from patent US8933100B2 (priority 2012, dated 2015).

pIC50: −log10 of the molar value. Like-named read-outs stand apart in the source and are kept apart here.

T1 sequence (P33261 whole entry): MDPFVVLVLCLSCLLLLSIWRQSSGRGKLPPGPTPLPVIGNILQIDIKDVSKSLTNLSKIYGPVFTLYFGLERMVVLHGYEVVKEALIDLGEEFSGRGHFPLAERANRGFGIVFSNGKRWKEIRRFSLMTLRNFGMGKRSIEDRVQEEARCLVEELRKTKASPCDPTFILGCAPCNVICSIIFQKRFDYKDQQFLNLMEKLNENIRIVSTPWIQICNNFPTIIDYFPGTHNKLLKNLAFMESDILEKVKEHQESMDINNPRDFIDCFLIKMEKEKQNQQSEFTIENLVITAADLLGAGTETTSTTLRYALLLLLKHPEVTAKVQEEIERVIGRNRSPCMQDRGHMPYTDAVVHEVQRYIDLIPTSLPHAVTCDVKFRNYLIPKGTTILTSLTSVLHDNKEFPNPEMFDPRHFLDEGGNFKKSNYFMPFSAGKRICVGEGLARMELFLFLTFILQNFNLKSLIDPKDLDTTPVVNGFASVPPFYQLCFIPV
T2 sequence (P31652 whole entry): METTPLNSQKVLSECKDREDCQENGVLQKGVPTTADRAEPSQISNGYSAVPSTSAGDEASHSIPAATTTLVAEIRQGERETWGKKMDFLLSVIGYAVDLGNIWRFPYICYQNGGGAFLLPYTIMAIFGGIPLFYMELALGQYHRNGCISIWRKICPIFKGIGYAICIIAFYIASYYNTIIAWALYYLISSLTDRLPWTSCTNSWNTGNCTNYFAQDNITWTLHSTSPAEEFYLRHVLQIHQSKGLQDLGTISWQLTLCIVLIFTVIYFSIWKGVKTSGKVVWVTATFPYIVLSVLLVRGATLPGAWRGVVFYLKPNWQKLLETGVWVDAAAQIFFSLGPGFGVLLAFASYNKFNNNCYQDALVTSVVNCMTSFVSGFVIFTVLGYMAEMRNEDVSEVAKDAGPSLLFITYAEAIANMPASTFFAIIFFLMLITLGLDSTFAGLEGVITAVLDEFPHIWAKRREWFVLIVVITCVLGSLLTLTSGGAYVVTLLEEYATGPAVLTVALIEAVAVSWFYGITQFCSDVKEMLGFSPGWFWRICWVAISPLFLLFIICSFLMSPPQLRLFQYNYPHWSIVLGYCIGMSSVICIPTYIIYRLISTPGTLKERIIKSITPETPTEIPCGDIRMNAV
Method for serotonin transporter: That is, the test compound was added to rat platelets, the fluorescent substance of a Neurotransmitter Transporter Activity Assay Kit (Molecular Devices, R8174) was added beginning after 15 minutes, and changes in fluorescent intensity from uptake of the fluorescent substance were measured over time to evaluate the inhibitory effect of the test compound on serotonin transporter.
2 Centrifugation was carried out at 350 g at room temperature for 5 minutes, and the supernatant containing platelet-rich plasma was collected in 15 ml falcon tubes.
3 Centrifugation was carried out at 2100 g at room temperature for 10 minutes to obtain platelets as a pellet. Ca-free K5 buffer was added in the amount of 0.7 times the amount of platelet-rich plasma obtained in operation 2, and the pellet was triturated by pipetting.
5 The fluorescent substance of a Neurotransmitter Transporter Activity Assay Kit was added, and changes in fluorescent intensity over time from uptake of the fluorescent substance through serotonin transporters were measured with a FDSS 6000 (Hamamatsu Photonics).

Take `Fc1ccc([C@@H]2CCNC[C@H]2COc2ccc3c(c2)COC3)cc1` [Example 1, (3S,4R)-3-[(1,3-dihydro-2-benzofuran-5-yloxy)methyl]-4-(4-fluorophenyl)piperidine]: the “Ratio of residual CYP2C19 activity in presence vs absence of NADPH after pre-incubation” value at CYP2C19 [1] (10 μM) and on CYP2C19 [1] (50 μM) was “− (the ratio of above 80% was defined as “−”)” each time. Moreover, the pIC50 was 8.62 against serotonin transporter; < 5.00 at CYP1A2 [5]; < 5.00 on CYP2C19 [6]; < 5.00 at CYP2D6 [7]; < 5.00 at CYP3A4 [8]; < 5.00 on CYP2C9 [9]. The “Ratio of residual CYP3A4 activity in presence vs absence of NADPH after pre-incubation” value at CYP3A4 [2] (10 μM) and at CYP3A4 [2] (50 μM) was “− (the ratio of above 80% was defined as “−”)” each time. The “immobility time in forced swimming test” value in the series with male BALB/c mice is listed as “dose-dependently suppressed immobility time”. Moreover, the “Ratio of residual CYP1A2 activity in presence vs absence of NADPH after pre-incubation” value at CYP1A2 [3] (10 μM) and at CYP1A2 [3] (50 μM) was “− (the ratio of above 80% was defined as “−”)” throughout. In addition, the “Ratio of residual CYP2D6 activity in presence vs absence of NADPH after pre-incubation” value at CYP2D6 [4] (10 μM) and on CYP2D6 [4] (50 μM) was “− (the ratio of above 80% was defined as “−”)” each time. Also, the “Ratio of residual CYP2C9 activity in presence vs absence of NADPH after pre-incubation” value on CYP2C9 [10] (10 μM) and at CYP2C9 [10] (50 μM) was “− (the ratio of above 80% was defined as “−”)” throughout.

As to `Fc1ccc([C@@H]2CCNC[C@H]2COc2ccc3c(c2)OCO3)cc1` [Paroxetine, (3S,4R)-3-[(2H-1,3-benzodioxol-5-yloxy)methyl]-4-(4-fluorophenyl)piperidine, reference compound], the “immobility time in forced swimming test” value in the series on male BALB/c mice is listed as “dose-dependently suppressed immobility time”. Also, the pIC50 on CYP1A2 [5] is < 5.00; at CYP2C9 [9] (tested at 1 or 10 μM, tolbutamide 100 μM, n = 2, read-out: CYP2C9 IC50 score (competitive inhibition)), < 5.00.
